Results reported in patent publication US20250052744A1, “Dyes and Uses Thereof” (The University of Liverpool, priority 2021, published 2025).

Columns and labels:
Experiment in all cases: Qualitative dye staining on agarose pads (EVOS M7000)
Type in all cases: cell-based
Design in all cases: key to Relative fluorescent intensity: Very high: If the cells looked twice as big in the fluorescent channel, it was marked as having “very high” relative fluorescent intensity; High: if the cells looked bigger in the fluorescent channel, it was marked as having “high” relative fluorescent intensity; Medium: If the cells looked almost the same size in the fluorescent channel and the bright field, it was marked as having “medium” relative fluorescent intensity; Low: If the cells looked smaller in the fluorescent channel as compared to the brightfield but still the whole cell was visible, it was marked as having “low” relative fluorescent intensity; Negligible: If only a few traces of a cell was visible in the fluorescent channel, it was marked as having “negligible” relative fluorescent intensity
Conditions in all cases: DiSC3(5) 3 μM, SYBR Green I 10×, SYTO 13 3 μM, FM4-64 15 μM
Klebsiella oxytoca = test system: Klebsiella oxytoca
[1] = test system: Staphylococcus saprophyticus
Streptococcus agalactiae = test system: Streptococcus agalactiae
[2] = Table 8 sample Klebsiella oxytoca (091)
[3] = Table 8 sample Klebsiella oxytoca (092)
[4] = Table 8 sample Klebsiella oxytoca (093)
[5] = Table 6 thresholds, Staphylococcus saprophyticus
[6] = Table 7 commercial strain S. saprophyticus NCTC 13634
[7] = Table 8 sample Staphylococcus saprophyticus (047)
[8] = Table 8 sample Staphylococcus saprophyticus (048)
[9] = Table 8 sample Staphylococcus saprophyticus (049)
[10] = Table 6 thresholds, Streptococcus agalactiae
[11] = Table 7 commercial strain Streptococcus agalactiae NCTC 11239
[12] = Table 8 sample Streptococcus agalactiae (081)
[13] = Table 8 sample Streptococcus agalactiae (082)
[14] = Table 8 sample Streptococcus agalactiae (083)

SMILES	Percentage of cells stained (Klebsiella oxytoca; [2])	Relative fluorescent intensity (Klebsiella oxytoca; [2])	Percentage of cells stained (Klebsiella oxytoca; [3])	Relative fluorescent intensity (Klebsiella oxytoca; [3])	Percentage of cells stained (Klebsiella oxytoca; [4])	Relative fluorescent intensity (Klebsiella oxytoca; [4])	Percentage of cells stained [1, 5]	Relative fluorescent intensity [1, 5]	Percentage of cells stained [1, 6]	Relative fluorescent intensity [1, 6]	Percentage of cells stained [1, 7]	Relative fluorescent intensity [1, 7]	Percentage of cells stained [1, 8]	Relative fluorescent intensity [1, 8]	Percentage of cells stained [1, 9]	Relative fluorescent intensity [1, 9]	Percentage of cells stained (Streptococcus agalactiae; [10])	Relative fluorescent intensity (Streptococcus agalactiae; [10])	Percentage of cells stained (Streptococcus agalactiae; [11])	Relative fluorescent intensity (Streptococcus agalactiae; [11])	also measured
CCCN(CCCN(C)C)c1cc(/C=C2/Sc3ccccc3N2C)c2ccccc2[n+]1-c1ccccc1 [SYBR Green I, N′,N′-dimethyl-N-[4-[(E)-(3-methyl-1,3-benzothiazol-2-ylidene)methyl]-1-phenylquinolin-1-ium-2-yl]-N-propylpropane-1,3-diamine]	Almost all	Low	Almost all	Low	Half	Low	Almost all	High	Almost all	High	Almost all	High	Almost all	High	Almost all	High	Almost all	very high	Almost all	Very high	Relative fluorescent intensity (Streptococcus agalactiae; Table 6 thresholds, Streptococcus agalactiae, listed as SYBR Green): Very high; Percentage of cells stained (Streptococcus agalactiae; [12]): Almost all; Relative fluorescent intensity (Streptococcus agalactiae; [12]): Very high; Percentage of cells stained (Streptococcus agalactiae; [13]): Almost all; Relative fluorescent intensity (Streptococcus agalactiae; [13]): Very high; Percentage of cells stained (Streptococcus agalactiae; [14]): Almost all; Relative fluorescent intensity (Streptococcus agalactiae; [14]): Very high
CCCN1C(=CC=CC=Cc2sc3ccccc3[n+]2CCC)Sc2ccccc21.[I-] [DiSC3(5), 3,3′-Dipropylthiadicarbocyanine Iodide]	Almost all	Medium	Almost all	Low	Half	Low	Almost all	high and High	Almost all	High	Almost all	High	Almost all	High	Almost all	High	Almost all	low and Low	Almost all	Low	Percentage of cells stained (Streptococcus agalactiae; [12]): Almost all; Relative fluorescent intensity (Streptococcus agalactiae; [12]): Low; Percentage of cells stained (Streptococcus agalactiae; [13]): Almost all; Relative fluorescent intensity (Streptococcus agalactiae; [13]): Low; Percentage of cells stained (Streptococcus agalactiae; [14]): Almost all; Relative fluorescent intensity (Streptococcus agalactiae; [14]): Low
CCN(CC)c1ccc(C=CC=CC=Cc2cc[n+](CCC[N+](CC)(CC)CC)cc2)cc1.[Br-].[Br-] [FM 4-64, N-(3-Triethylammoniumpropyl)-4-(6-(4-(Diethylamino) Phenyl) Hexatrienyl) Pyridinium Dibromide]	Few	Low	Almost all	Low	Half	Low	Almost all	High	Almost all	High	Almost all	High	Almost all	High	Almost all	High	Almost all	High	Almost all	High	Percentage of cells stained (Streptococcus agalactiae; [12]): Almost all; Relative fluorescent intensity (Streptococcus agalactiae; [12]): High; Percentage of cells stained (Streptococcus agalactiae; [13]): Almost all; Relative fluorescent intensity (Streptococcus agalactiae; [13]): High; Percentage of cells stained (Streptococcus agalactiae; [14]): Almost all; Relative fluorescent intensity (Streptococcus agalactiae; [14]): High
